Reference: patent US7300946B2, “N-(substituted arylmethyl)-4-(disubstituted methyl) piperidines and pyridines” (Bayer CropScience AG, priority 2002, dated 2007)

System: tobacco budworm (Heliothis virescens [Fabricius])
Assay: surface-treated diet test against the tobacco budworm
Format: in vivo
Conditions: tobacco budworm second instar larvae, surface-treated diet, 0.25 millimoles of candidate insecticide on the surface of the diet, five-day exposure; for Percent Mortality: compared to total number of insects infested; for Percent Growth Inhibition: inhibition of insect weight relative to untreated controls
Description: Candidate insecticides were evaluated for activity against the tobacco budworm (Heliothis virescens [Fabricius]) in a surface-treated diet test.
In this test one mL of molten (65–70° C.) wheat germ-based artificial diet was pipetted into each well of a four by six (24 well) multi-well plate (ID# 430345-15.5 mm dia.×17.6 mm deep; Corning Costar Corp., One Alewife Center, Cambridge, Mass. 02140). The diet was allowed to cool to ambient temperature before treatment with candidate insecticide.
For a determination of insecticidal activity, solutions of the candidate insecticides were prepared for testing using a Packard 204DT Multiprobe® Robotic System (Packard Instrument Company, 800 Research Parkway, Meriden, Conn. 06450), in which the robot first diluted a standard 50 millimolar DMSO solution of candidate insecticide with a 1:1 water/acetone solution (V/V) in a ratio of 1:7 stock solution to water/acetone. The robot subsequently pipetted 40 microliters of the so-prepared solution onto the surface of the diet in each of three wells in the 24 multi-well plate. The process was repeated with solutions of seven other candidate insecticides. Once treated, the contents of the multi-well plate were allowed to dry, leaving 0.25 millimoles of candidate insecticide on the surface of the diet, or a concentration of 0.25 millimolar. Appropriate untreated controls containing only DMSO on the diet surface were also included in this test. […]
In each well of the test plate was placed one second instar tobacco budworm larvea, each weighing approximately five milligrams. After the larvae were placed in each well, the plate was sealed with clear polyfilm adhesive tape. The tape over each well was perforated to ensure an adequate air supply. The plates were then held in a growth chamber at 25° C. and 60% relative humidity for five days (light 14 hours/day).
After the five-day exposure period insecticidal activity for each rate of application of candidate insecticide was assessed as percent inhibition of insect weight relative to the weight of insects from untreated controls, and percent mortality when compared to the total number of insects infested.
The test compounds of formula I are identified by numbers that correspond to those in Table 1.
These tests were conducted with 0.25 millimoles of candidate insecticide on the surface of the diet.

CC(C)COC(=O)Nc1ccc(C[N+]2([O-])CCC(=C(c3ccc(C(F)(F)F)cc3)c3ccc(C(F)(F)F)cc3)CC2)cc1 (stereo not shown) [Compound 104]
Percent Mortality: 100%
Percent Growth Inhibition: 100%

[O-][N+]1(Cc2ccc(OCc3nccs3)cc2)CCC(=C(c2ccc(C(F)(F)F)cc2)c2ccc(C(F)(F)F)cc2)CC1 (stereo not shown) [Compound 105]
Percent Mortality: 100%
Percent Growth Inhibition: 100%

[O-][N+]1(Cc2ccc(Oc3ccccn3)cc2)CCC(=C(c2ccc(C(F)(F)F)cc2)c2ccc(C(F)(F)F)cc2)CC1 (stereo not shown) [Compound 106]
Percent Mortality: 100%
Percent Growth Inhibition: 100%

[O-][N+]1(Cc2ccc(Oc3ccc(Cl)cn3)cc2)CCC(=C(c2ccc(C(F)(F)F)cc2)c2ccc(C(F)(F)F)cc2)CC1 (stereo not shown) [Compound 107]
Percent Mortality: 100%
Percent Growth Inhibition: 100%

[O-][N+]1(Cc2ccc(Oc3cccc(Cl)n3)cc2)CCC(=C(c2ccc(C(F)(F)F)cc2)c2ccc(C(F)(F)F)cc2)CC1 (stereo not shown) [Compound 108]
Percent Mortality: 100%
Percent Growth Inhibition: 100%

[O-][N+]1(Cc2ccc(Oc3ncccc3C(F)(F)F)cc2)CCC(=C(c2ccc(C(F)(F)F)cc2)c2ccc(C(F)(F)F)cc2)CC1 (stereo not shown) [Compound 109]
Percent Mortality: 100%
Percent Growth Inhibition: 100%

N#Cc1ccc(Oc2ccc(C[N+]3([O-])CCC(=C(c4ccc(C(F)(F)F)cc4)c4ccc(C(F)(F)F)cc4)CC3)cc2)nc1 (stereo not shown) [Compound 111]
Percent Mortality: 100%
Percent Growth Inhibition: 100%

Cn1nnc(-c2ccc(C[N+]3([O-])CCC(=C(c4ccc(C(F)(F)F)cc4)c4ccc(C(F)(F)F)cc4)CC3)cc2)n1 (stereo not shown) [Compound 112]
Percent Mortality: 100%
Percent Growth Inhibition: 100%

CCn1nnc(-c2ccc(C[N+]3([O-])CCC(=C(c4ccc5c(c4)OC(F)(F)O5)c4ccc5c(c4)OC(F)(F)O5)CC3)cc2)n1 (stereo not shown) [Compound 115]
Percent Mortality: 100%
Percent Growth Inhibition: 100%

FC(F)(F)c1ccc(C(=C2CC3CCCC(C2)N3Cc2ccc(Oc3ccccn3)cc2)c2ccc(C(F)(F)F)cc2)cc1 [Compound 117, 2-{4-[(9-aza-3-{bis[4-(trifluoromethyl)phenyl]methylene}bicyclo[3.3.1]non-9-yl)methyl]phenoxy}pyridine]
Percent Mortality: 100%
Percent Growth Inhibition: 100%

O=C(Nc1ccc(F)cc1)Oc1ccc(CN2CCC(C(OC(=O)Nc3ccc(F)cc3)c3ccc(OC(F)(F)F)cc3)CC2)cc1 (stereo not shown) [Compound 181]
Percent Mortality: 100%
Percent Growth Inhibition: 100%

CCON=Cc1ccc(CN2CCC(C(OC(=O)Nc3ccc(Cl)cc3)c3ccc(C(F)(F)F)cc3)CC2)cc1 (stereo not shown) [Compound 182]
Percent Mortality: 100%
Percent Growth Inhibition: 100%

CCON=Cc1ccc(CN2CCC(C(OC(=O)Nc3ccc(Br)cc3)c3ccc(C(F)(F)F)cc3)CC2)cc1 (stereo not shown) [Compound 183]
Percent Mortality: 100%
Percent Growth Inhibition: 100%

CCON=Cc1ccc(CN2CCC(C(OC(=O)Nc3cccc(Cl)c3Cl)c3ccc(C(F)(F)F)cc3)CC2)cc1 (stereo not shown) [Compound 188]
Percent Mortality: 100%
Percent Growth Inhibition: 100%

CCON=Cc1ccc(CN2CCC(C(OC(=O)Nc3ccc(Cl)c(Cl)c3)c3ccc(C(F)(F)F)cc3)CC2)cc1 (stereo not shown) [Compound 189]
Percent Mortality: 100%
Percent Growth Inhibition: 100%

CCON=Cc1ccc(CN2CCC(C(OC(=O)Nc3ccc(Cl)cc3Cl)c3ccc(C(F)(F)F)cc3)CC2)cc1 (stereo not shown) [Compound 190]
Percent Mortality: 100%
Percent Growth Inhibition: 100%

CCON=Cc1ccc(CN2CCC(C(OC(=O)Nc3cc(Cl)ccc3Cl)c3ccc(C(F)(F)F)cc3)CC2)cc1 (stereo not shown) [Compound 191]
Percent Mortality: 100%
Percent Growth Inhibition: 100%

CCON=Cc1ccc(CN2CCC(C(OC(=O)Nc3cc(Cl)c(Cl)cc3Cl)c3ccc(C(F)(F)F)cc3)CC2)cc1 (stereo not shown) [Compound 192]
Percent Mortality: 67%
Percent Growth Inhibition: 98%

CCON=Cc1ccc(CN2CCC(C(OC(=O)Nc3ccc(F)cc3F)c3ccc(C(F)(F)F)cc3)CC2)cc1 (stereo not shown) [Compound 193]
Percent Mortality: 100%
Percent Growth Inhibition: 100%

CON=Cc1ccc(CN2CCC(C(OC(=O)Nc3ccc(F)c(F)c3)c3ccc(OC(F)(F)F)cc3)CC2)cc1 (stereo not shown) [Compound 194]
Percent Mortality: 100%
Percent Growth Inhibition: 100%

CCON=Cc1ccc(CN2CCC(C(OC(=O)Nc3ccc(F)c(F)c3)c3ccc(OC(F)(F)F)cc3)CC2)cc1 (stereo not shown) [Compound 195]
Percent Mortality: 100%
Percent Growth Inhibition: 100%

CCON=Cc1ccc(CN2CCC(C(OC(=O)Nc3ccc(F)c(F)c3)c3ccc(C(F)(F)F)cc3)CC2)cc1 (stereo not shown) [Compound 196]
Percent Mortality: 100%
Percent Growth Inhibition: 100%

CCON=Cc1ccc(CN2CCC(C(OC(=O)Nc3c(F)cccc3F)c3ccc(C(F)(F)F)cc3)CC2)cc1 (stereo not shown) [Compound 199]
Percent Mortality: 100%
Percent Growth Inhibition: 100%

CCON=Cc1ccc(CN2CCC(C(OC(=O)Nc3cc(F)cc(F)c3)c3ccc(C(F)(F)F)cc3)CC2)cc1 (stereo not shown) [Compound 200]
Percent Mortality: 100%
Percent Growth Inhibition: 100%

CCON=Cc1ccc(CN2CCC(C(OC(=O)Nc3ccc(F)c(F)c3F)c3ccc(C(F)(F)F)cc3)CC2)cc1 (stereo not shown) [Compound 201]
Percent Mortality: 100%
Percent Growth Inhibition: 100%

CCON=Cc1ccc(CN2CCC(C(OC(=O)Nc3c(F)c(F)c(F)c(F)c3F)c3ccc(C(F)(F)F)cc3)CC2)cc1 (stereo not shown) [Compound 202]
Percent Mortality: 100%
Percent Growth Inhibition: 100%

CCON=Cc1ccc(CN2CCC(C(OC(=O)Nc3ccccc3C(F)(F)F)c3ccc(C(F)(F)F)cc3)CC2)cc1 (stereo not shown) [Compound 203]
Percent Mortality: 100%
Percent Growth Inhibition: 100%

CCON=Cc1ccc(CN2CCC(C(OC(=O)Nc3cccc(C(F)(F)F)c3)c3ccc(C(F)(F)F)cc3)CC2)cc1 (stereo not shown) [Compound 204]
Percent Mortality: 100%
Percent Growth Inhibition: 100%

CCON=Cc1ccc(CN2CCC(C(OC(=O)Nc3ccc(C(F)(F)F)cc3)c3ccc(C(F)(F)F)cc3)CC2)cc1 (stereo not shown) [Compound 205]
Percent Mortality: 33%
Percent Growth Inhibition: 100%

CCON=Cc1ccc(CN2CCC(C(OC(=O)Nc3ccc(Cl)cc3C(F)(F)F)c3ccc(C(F)(F)F)cc3)CC2)cc1 (stereo not shown) [Compound 206]
Percent Mortality: 100%
Percent Growth Inhibition: 100%

CCON=Cc1ccc(CN2CCC(C(OC(=O)Nc3ccc(Cl)c(C(F)(F)F)c3)c3ccc(C(F)(F)F)cc3)CC2)cc1 (stereo not shown) [Compound 207]
Percent Mortality: 100%
Percent Growth Inhibition: 100%

CCON=Cc1ccc(CN2CCC(C(OC(=O)Nc3ccc(Br)cc3C(F)(F)F)c3ccc(C(F)(F)F)cc3)CC2)cc1 (stereo not shown) [Compound 208]
Percent Mortality: 100%
Percent Growth Inhibition: 100%

CCON=Cc1ccc(CN2CCC(C(OC(=O)Nc3ccc(OC)cc3)c3ccc(C(F)(F)F)cc3)CC2)cc1 (stereo not shown) [Compound 209]
Percent Mortality: 100%
Percent Growth Inhibition: 100%

CCON=Cc1ccc(CN2CCC(C(OC(=O)Nc3cc(Cl)c(OC)cc3OC)c3ccc(C(F)(F)F)cc3)CC2)cc1 (stereo not shown) [Compound 210]
Percent Mortality: 0%
Percent Growth Inhibition: 67%

CCON=Cc1ccc(CN2CCC(C(OC(=O)Nc3ccc(OC(F)(F)F)cc3)c3ccc(C(F)(F)F)cc3)CC2)cc1 (stereo not shown) [Compound 211]
Percent Mortality: 100%
Percent Growth Inhibition: 100%

CCON=Cc1ccc(CN2CCC(C(OC(=O)Nc3ccc(-c4ccccc4)cc3)c3ccc(C(F)(F)F)cc3)CC2)cc1 (stereo not shown) [Compound 212]
Percent Mortality: 100%
Percent Growth Inhibition: 100%

CCON=Cc1ccc(CN2CCC(C(OC(=O)Nc3cccc4c3CC=CC4)c3ccc(C(F)(F)F)cc3)CC2)cc1 (stereo not shown) [Compound 214]
Percent Mortality: 0%
Percent Growth Inhibition: 100%

O=C(Nc1ccc(Cl)cc1)OC(c1ccc(C(F)(F)F)cc1)C1CCN(Cc2ccc(Oc3ccccn3)cc2)CC1 (stereo not shown) [Compound 227, N-(4-chlorophenyl)({1-[(4-(2-pyridyloxy)phenyl)methyl](4-piperidyl)}[4-(trifluoromethyl)phenyl]methoxy)carboxamide]
Percent Mortality: 100%
Percent Growth Inhibition: 100%

O=C(Nc1cccc(Cl)c1Cl)OC(c1ccc(C(F)(F)F)cc1)C1CCN(Cc2ccc(Oc3ccccn3)cc2)CC1 (stereo not shown) [Compound 228]
Percent Mortality: 100%
Percent Growth Inhibition: 100%

O=C(Nc1ccc(Cl)c(Cl)c1)OC(c1ccc(C(F)(F)F)cc1)C1CCN(Cc2ccc(Oc3ccccn3)cc2)CC1 (stereo not shown) [Compound 230]
Percent Mortality: 100%
Percent Growth Inhibition: 100%

O=C(Nc1cc(Cl)ccc1Cl)OC(c1ccc(C(F)(F)F)cc1)C1CCN(Cc2ccc(Oc3ccccn3)cc2)CC1 (stereo not shown) [Compound 231]
Percent Mortality: 100%
Percent Growth Inhibition: 100%
